This note sets out measurements from publication PMC12186257, “Serendipitous and Systematic Chemoproteomic Discovery of MBLAC2, HINT1, and NME1‑4 Inhibitors from Histone Deacetylase-Targeting Pharmacophores” (ACS Chemical Biology, 2025).

The subject of this test is casein kinase 2 (CK2) complex proteins (CSNK2A1/3, CSNK2A2, CSNK2B, EIF3J). Description: Kinobead competition assay. The format is binding, human. From the text: The binding of KV-24 and KV-30 to the nucleotide-binding pocket raises the question of whether these compounds also target other nucleotide-binding proteins, such as kinases. To evaluate potential off-target effects, we performed Kinobead competition assays. This chemoproteomic approach is conceptually very similar to the one used here in that broad spectrum kinase inhibitors are immobilized on beads. […] PDE1C is a cAMP/cGMP nucleotide-binding protein that features two divalent metal cation cofactors. The hydroxamic acid moiety of KV-24 might chelate these metal cofactors, supporting the hypothesis that KV-24 binds the active site of PDE1C. […]
Given that local GTP production by NME1 and NME2 is essential for fueling dynamin-driven endocytosis, we investigated the effect of KV-50-mediated NME1/2 inhibition on fluorescent transferrin (TF) uptake in cells. HeLa cells were treated with KV-50 or known endocytosis inhibitors (Pitstop-2 and Dynasore), and surface-bound and internalized fluorescent TF were quantified. […]
LC-MS/MS. The different sample types were measured with different LC-MS/MS settings. MBLAC2 2-dose competition assays were measured with the Lumos1 setup, MBLAC2 9-dose competition assays were measured with the Lumos2 setup, and kinobeads assays were measured with the Eclipse setup. […]

Turning to `O=C(NO)c1ccc(-c2nc3ccccc3n3cccc23)cc1` [KV-24], the “casein kinase 2 family members binding” value is given as “reduced binding at two-digit μM concentrations”.
